Source: patent US20130273557A1 (priority 2010, published 2013)
“Also recorded” adds a separate entry of the source.

Assays:
[1] = biological target: leak conductance of SMVs enriched in F1FO ATP synthase (complex V) (Rattus norvegicus, UniProt P19511+Q06647); test: biochemical
Experimental: Reagents were rapidly perfused into the recording chamber.
(§1) Giga-ohm seals were formed on SMVs using pipettes and solutions as above. Peak membrane conductance was measured as described above.

[2] = test system: leak conductance of urea-treated SMVs; test: Patch clamp recordings of urea-treated SMVs (F1 removed); assay type: biochemical, rat
Experimental: F1 subunits were removed from SMVs by adapting previously-established methods. 60 mg SMV's/1 mL IB was treated with 1 mL of […] for 5 min. on ice, then centrifuged at 21000×g for 10 min. The pellet was washed 3× in IB (centrifugation at 21000×g for 10 min) and stored in IB.
as §1

[3] = test system: single cultured hippocampal neurons; conditions: acute application of 10 μM, after 1-5 min
Experimental: Oxygen uptake was measured in single hippocampal neurons in culture (DIV 14-17). A […] (tip diameter) oxygen-sensing electrode oscillated 10 μm close-to and away-from the cell every 3 sec. The difference in current detected at the two positions was translated into oxygen flux.

[4] = test system: digitonin-treated cortical neurons; test: ATP production following ADP pulse in digitonin-treated cortical neurons; assay type: cell-based, rat; conditions: dexpramipexole 30 μM
citrate synthase = conditions: dexpramipexole 30 μM
Experimental: Primary rat cortical cultures were incubated with digitonin (10 μg/ml) and rotenone (100 nM) for 45 minutes in MAS1 buffer prior to measurement of oxygen consumption rate (OCR) by a Seahorse® flux analyzer. […] Data are shown as a percentage of the control group OCR±SEM.

C2C12 myoblasts = test: OCR and ECAR in C2C12 myoblasts (Seahorse); assay type: cell-based, mouse
Experimental: The C2C12 mouse myoblast cell line (ATCC, Manasses, Va.) was cultured in Dulbecco's Modified Eagle Medium (DMEM; Gibco®; Carlsbad, Calif.) supplemented with 10% fetal bovine serum (FBS), 2 mM GlutaMax® and penicillin/streptomycin. Cells were maintained in 10% CO2 humidified at 37° C.
OCR and ECAR were measured with a Seahorse® XF24 Flux Analyzer (Seahorse Bioscience, Billerica, Mass.). For PSI experiments on C2C12 cells, basal values were assessed in non-buffered DMEM Assay Medium without glucose, glutamine or pyruvate, and supplemented with 25 mM glucose, 6 mM Glutamax®, and 1 mM sodium pyruvate. […] Succinate and ADP stocks were diluted to 10× concentrations in pre-warmed XF MAS buffer, pH 7.2. Using a Plate Prep Station (Seahorse Bioscience, Billerica, Mass.), cells were washed with 1 mL buffer and were brought to 607 μL with buffer. […] Raw basal OCR and ECAR values were normalized as a percent of the mean control value for each individual experiment. Normalized data from experiments were expressed as mean±SEM.

complex V (F1FO ATPase) [5] = biological target: T1, complex V (F1FO ATPase) (Rattus norvegicus, UniProt P19511+Q06647); conditions: concentration-dependent
Experimental: ATP hydrolysis was also measured using an NADH-ATP-synthase kit (Mitosciences, USA; catalog #MS541), according to the manufacturer's protocol with modifications. SMVs were added 20 min. prior to addition of the reagent mix. The rate of change in […] over time as NADH was oxidized was measured as a decrease in absorbance at 340 nm.

[6] = biological target: ATP synthesis in liver mitochondria (Rattus norvegicus, UniProt P19511+Q06647)
Experimental: Synthesis of ATP in liver mitochondria was measured using an ATP determination kit (A-22066; Molecular Probes, Eugene, Oreg.), supplemented with 1 mM sodium succinate and 500 nM rotenone. Assays were performed in 96-well microplates (Becton Dickinson, Franklin Lakes, N.J.) in a final volume of […] consisting of 10 μL mitochondria (0.1 mg protein/ml final concentration), 10 μL of drug or control buffer and 90 μL ATP-determination reaction mixture. After a 5 min. recording of basal luciferase-generated luminescence, ADP (final concentration, 10 μM, 10 μL) was injected into each well. Luminescence was recorded every 6 sec for 15-20 min.

[7] = test system: Ca^2+-induced ion conductance in mitochondria; conditions: 2 or 20 μM, in 100 μM Ca^2+
SMVs (F1FO ATP synthase) = SMVs (F1FO ATP synthase) (Rattus norvegicus, UniProt P19511+Q06647); conditions: 20 μM unlabeled dexpramipexole; non-urea treated SMVs; preliminary experiment
[8] = biological target: human F1FO ATP synthase b subunit (Homo sapiens, UniProt P24539); conditions: co-incubation in 'cold' dexpramipexole (100 μM)
[9] = test system: G93A-SOD1 mutant mouse model of ALS; conditions: independent laboratory; cited from earlier work
[10] = test system: human neuroblastoma SH-SY5Y cells; conditions: MPP^+ or PSI exposure; cited from earlier work
[11] = test system: models of cell death and NDDs; conditions: compared with pramipexole; cited from earlier work
complex V (F1FO ATPase) [12] = biological target: T1, complex V (F1FO ATPase); test: ATP hydrolysis in SMVs, luciferin-luciferase assay; assay type: biochemical; parameters: from tissue; host or cells: rat brain mitochondria, lubrol-insoluble submitochondrial vesicles (SMVs)
Source text: 3 wells were used for each condition, repeated at least 3× on different SMV isolations.

[13] = co-incubation of dexpramipexole 30 μM and PSI 30 nM

## CCCN[C@@H]1CCc2nc(N)sc2C1 [dexpramipexole, (6R)-4,5,6,7-tetrahydro-N-6-propyl-2,6-benzothiazole-diamine]
[1]
  EC50: 111 nM
[1]; high [Ca^2+], 2 μM dexpramipexole, 1.0 μM CSA
  currents in SMVs: inhibited
[2]
  leak conductance after removal of F1: no longer inhibited the conductance
[3]
  decrease in average oxygen flux: ~16%
[4]
  initial slope of ATP synthesis following an ADP pulse: unchanged
  maximal ATP levels: unchanged
Citrate synthase
  levels of citrate synthase: unchanged
C2C12 myoblasts; [13]
  ECAR: no increase in ECAR
  OCR: significant decrease in OCR
C2C12 myoblasts; dexpramipexole 30 μM or PSI 30 nM alone, 18 hr
  OCR: significant decrease in OCR; also recorded: significantly decreased
Complex V (F1FO ATPase) [5]
  ATP hydrolysis (change in NADH signal): significantly enhanced ATP hydrolysis
[6]
  Hill slope of CRC: < 1
[7]
  mitochondrial membrane currents: effectively decreased
SMVs (F1FO ATP synthase)
  reduction in ^14C-dexpramipexole binding by competition: 34%
[8]
  competition of ^14C-dexpramipexole binding to b subunit: significantly reduced binding
[9]
  in vivo survival: significantly increased in vivo survival
[10]
  in vitro cytoprotection: significant concentration-dependent in vitro cytoprotection
[11]
  protection: equally protective
Complex V (F1FO ATPase) [12]
  EC50: 1630 nM
